Activity calls are given as the source filed them. The calls are words filed in the database; no cut-off is given here.
Key:
4T1 [1] = test: Antimetastatic activity against mouse 4T1 cells implanted in BALB/c mouse assessed as reduction in CD31-expressing vasculature at 24.5 mg/kg administered thrice per week for 2 weeks after 15 days post implantation by immunostaining-based assay; format: functional, organism-based
4T1 [2] = test: Antimetastatic activity against mouse 4T1 cells implanted in BALB/c mouse assessed as reduction in gross lung-metastasis count at 24.5 mg/kg administered thrice per week for 2 weeks after 15 days post implantation relative to control; format: functional; set-up: scale not given: the % may be the effect or the level left
4T1 [3] = test: Antimetastatic activity against mouse 4T1 cells implanted in BALB/c mouse assessed as reduction in microscopic lung nodules at 24.5 mg/kg administered thrice per week for 2 weeks after 15 days post implantation by H and E staining-based assay; format: functional, organism-based
MDA-MB-231 [4] = test: Antimetastatic activity against human MDA-MB-231 cells xenografted in NOD-scid mouse assessed as reduction in circulating tumor cells at 24.5 mg/kg, iv administered thrice per week for 2 weeks immunofluorescent staining-based assay; format: functional, organism-based
MDA-MB-231 [5] = test: Antimetastatic activity against human MDA-MB-231 cells xenografted in NOD-scid mouse assessed as reduction in tumor burden at 24.5 mg/kg, iv administered thrice per week for 2 weeks; format: functional, organism-based
Mus musculus = test: Toxicity in BALB/c mouse implanted with mouse 4T1 cells assessed as reduction in body weight at 24.5 mg/kg administered thrice per week for 2 weeks after 15 days post implantation; format: organism-based; details: in vivo

Compound: CCCC[C@H](NC(=O)[C@@H]1CCCN1C(=O)[C@@H](NC(=O)[C@H](CO)NC(=O)[C@H](CC(=O)O)NC(=O)[C@@H]1CCCN1C(=O)[C@H](Cc1ccc(O)cc1)NC(=O)[C@H](C)NC(=O)[C@H](CO)NC(=O)COc1ccc(F)c(Cl)c1)C(C)C)C(=O)N[C@@H](CCO)C(=O)N[C@@H](CO)C(=O)NCC(=O)NCCCC[C@H](NC(=O)CNC(=O)[C@H](CO)NC(=O)[C@H](CCO)NC(=O)[C@H](CCCC)NC(=O)[C@@H]1CCCN1C(=O)[C@@H](NC(=O)[C@H](CO)NC(=O)[C@H](CC(=O)O)NC(=O)[C@@H]1CCCN1C(=O)[C@H](Cc1ccc(O)cc1)NC(=O)[C@H](C)NC(=O)[C@H](CO)NC(=O)COc1ccc(F)c(Cl)c1)C(C)C)C(=O)NCC(=O)N[C@H](CCCCNC(=O)CCCc1cn(CCCCCC(=O)O[C@@H](C(=O)O[C@H]2C[C@@]3(O)[C@@H](OC(=O)c4ccccc4)[C@@H]4[C@]5(OC(C)=O)CO[C@@H]5C[C@H](O)[C@@]4(C)C(=O)[C@H](OC(C)=O)C(=C2C)C3(C)C)[C@@H](NC(=O)c2ccccc2)c2ccccc2)nn1)C(=O)NCC(=O)O
- Activity (4T1 [1]): Active
- Activity (4T1 [2]): >75%
- Activity (4T1 [3]): Active
- Activity (MDA-MB-231 [4]): Active
- Activity (MDA-MB-231 [5]): Active
- Activity (Mus musculus): Non-Toxic

From ChEMBL document CHEMBL4219083, “Reduction of Circulating Cancer Cells and Metastases in Breast-Cancer Models by a Potent EphA2-Agonistic Peptide-Drug Conjugate” (J Med Chem, 2018)
